Patent US20230012368A1 (Hoffmann-La Roche Inc., priority 2018, published 2023)
Where a name gives a salt, the structure may show the parent alone.

system: Acinetobacter baumannii ATCC 17978; test: Antimicrobial susceptibility testing: 90% growth inhibitory concentration (IC90) determination; format: cell-based; conditions: 90% growth inhibitory concentration; Acinetobacter baumannii ATCC17978; Iso-Sensitest broth, OD 600 nm over 16h; read-out: ATCC17978 IC90
Summary of the method: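 Growth of the Acinetobacter baumannii strain was followed by optical density at 600 nm every 20 minutes for 16h at 35±2° C. Inoculum was ~5×10^(5) CFU/ml in Iso-Sensitest medium, with twofold compound dilutions (e.g. 50 to 0.097 μM final). The 90% inhibitory concentration was derived in log-phase growth.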

| SMILES | IC90 |
| --- | --- |
| CCc1cc(Nc2nccn3c(-c4ccc(OC)c(F)c4F)cnc23)ccc1C(=O)NCCCCN [Example 514, N-(4-aminobutyl)-4-((3-(2,3-difluoro-4-methoxyphenyl)imidazo[1,2-a]pyrazin-8-yl)amino)-2-ethylbenzamide hydrochloride] | 0.048 µM |

same assay, conditions: Acinetobacter baumannii, ATCC17978, 16 h, 90% growth inhibitory concentration; Acinetobacter baumannii ATCC17978; Iso-Sensitest broth, OD 600 nm over 16h; read-out: ATCC17978 IC90

| SMILES | IC90 |
| --- | --- |
| CCc1cc(Nc2nccn3c(-c4ccc(OC)c(F)c4F)cnc23)ccc1C(=O)NCC(O)CNC(=O)CC(O)CN (stereo not drawn) [Example 411, N-(3-(4-amino-3-hydroxybutanamido)-2-hydroxypropyl)-4-((3-(2,3-difluoro-4-methoxyphenyl)imidazo[1,2-a]pyrazin-8-yl)amino)-2-ethylbenzamide hydrochloride] | 0.32 µM |
| CCc1cc(Nc2nccn3c(-c4ccc(OC(F)F)c(F)c4F)cnc23)ccc1C(=O)NCC1CCNC1 (stereo not drawn) [Example 550, 4-[[3-[4-(difluoromethoxy)-2,3-difluorophenyl]imidazo[1,2-a]pyrazin-8-yl]amino]-2-ethyl-N-(pyrrolidin-3-ylmethyl)benzamide; formic acid] | 0.15 µM |
| COc1ccc(-c2cnc3c(Nc4ccc(C(=O)N(C)CCN5CCCCC5)c(C)c4)nccn23)cc1F [Example 267, 4-[[3-(3-fluoro-4-methoxyphenyl)imidazo[1,2-a]pyrazin-8-yl]amino]-N,2-dimethyl-N-(2-piperidin-1-ylethyl)benzamide] | 5.4 µM |
| Cc1cc(Nc2nccn3c(-c4ccc(Cl)c(F)c4F)cnc23)ccc1C(=O)NCCC1CCNCC1 [Example 193, 4-[[3-(4-chloro-2,3-difluorophenyl)imidazo[1,2-a]pyrazin-8-yl]amino]-2-methyl-N-(2-piperidin-4-ylethyl)benzamide;hydrochlo-ride] | 0.35 µM |
| COc1ccc(-c2cnc3c(Nc4ccc(C(=O)NC(CO)CO)c(C)c4)nccn23)cc1 [Example 154] | 0.82 µM |
| CCc1cc(Nc2nccn3c(-c4ccc(OCC#N)c(F)c4F)cnc23)ccc1C(=O)NCCNC(=O)[C@@H](N)CCCN [Example 140, 4-[[3-[4-(cyanomethoxy)-2,3-difluoro-phenyl]imidazo[1,2-a]pyrazin-8-yl]amino]-N-[2-[[(2S)-2,5-diaminopentanoyl]amino]ethyl]-2-ethyl-benzamide formate] | 0.17 µM |
| CNCCN1CCc2cc(Nc3nccn4c(-c5ccc(OC)c(F)c5F)cnc34)ccc2C1=O [Example 300, 6-[[3-(2,3-difluoro-4-methoxyphenyl)imidazo[1,2-a]pyrazin-8-yl]amino]-2-[2-(methylamino)ethyl]-3,4-dihydroisoquinolin-1-one;hydrochloride] | 0.24 µM |
| CCc1cc(Nc2nccn3c(-c4ccc(OC(F)F)c(F)c4F)cnc23)ccc1C(=O)NCC1(O)CCNC1 (stereo not drawn) [Example 311, 4-[[3-[4-(difluoromethoxy)-2,3-difluorophenyl]imidazo[1,2-a]pyrazin-8-yl]amino]-2-ethyl-N-[(3-hydroxypyrrolidin-3-yl)methyl]benzamide;hydro-chloride] | 0.8 µM |
| CCc1cc(Nc2nccn3c(-c4ccc(OC)c(F)c4F)cnc23)ccc1C(=O)NCC(C)CNC(=O)[C@@H](N)CCNC(=N)N (mixture of isomers) [Example 401, rac-N-(3-((R)-2-amino-4-guanidinobutanamido)-2-methylpropyl)-4-((3-(2,3-difluoro-4-methoxyphenyl)imidazo[1,2-a]pyrazin-8-yl)amino)-2-ethylbenzamide diformate] | 0.22 µM |
| CNC(=O)c1ccc(Nc2nccn3c(-c4ccc(OC)cc4)cnc23)cc1C [Example 14, 4-((3-(4-methoxyphenyl)imidazo [1,2-a]pyrazin-8-yl)amino)-N,2-dimethylbenzamide] | 0.12 µM |
| Cc1cc(Nc2nccn3c(-c4ccc(Cl)cc4)cnc23)ccc1C(=O)NCCCCN [Example 239, N-(4-aminobutyl)-4-[[3-(4-chlorophenyl)imidazo[1,2-a]pyrazin-8-yl]amino]-2-methylbenzamide; hydrochlo-ride] | 0.54 µM |
